According to patent US20150111835A1, “MODIFIED PEPTIDES AND THEIR USE FOR TREATING AUTOIMMUNE DISEASES” (CENTRE NATIONAL DE LA RECHERECHE SCIENTIFIQUE, priority 2011, published 2015):
Where a SMILES comes first, the peptide text is derived from it. [ ]: non-standard residue; d: D form. Met(O) = CS(=O)CC[C@H](N)C(=O)O; pS = N[C@@H](COP(=O)(O)O)C(=O)O

How the values were obtained:
[1] = Stability of the peptides at 37° C. in 10% (v/v) mannitol solution, HPLC peak area of intact peptide; assay type: physicochemical; settings: for 95% of stability (predicted): time to 95% stability from linear equation; for Linear equation of stability (%) versus days: slope: y = stability %, x = days; for Stability (%): 10% mannitol
Experimental: The stability of the peptide SEQ ID NO: 2 in which the serine at position 10 is phosphorylated and the methionine at position 4 is oxidized (P140(MO)), and the peptide SEQ ID NO: 1 in which the serine at position 10 is phosphorylated (P140) was measured at 37° C., in a solution of 10% (v/v) mannitol. For each peptide, 3 concentrations have been tested: 200, 100 and 50 μg/mL.
At the indicated time, the integrity of P140 and P140(MO) peptides was measured in saline by high-performance liquid chromatography from the area of the peak corresponding to the intact peptide.
Stability is measured by using the HPLC peak surface.

[2] = system: MRL/lpr mice; assay: Survival analysis in MRL/lpr lupus mice; assay type: in vivo, mouse; settings: female MRL/lpr mice, intravenous, from 5 weeks of age; NaCl control = 25 weeks
Experimental: (§1) Statistical tests were performed using GraphPad Prism version 5.0. The two-way ANOVA test was used to analyze statistical significance of proteinuria differences between control and peptide-treated groups of mice. Survival of control and P140 analogue-treated female MRL/lpr mice was analyzed by the Kaplan-Meier method, and the significance of differences was determined by the log-rank test. For the other variables, statistical significance was assessed using the Student's t-test. p values less than 0.05 were considered significant.
It has been determined that this mouse strain carries a mutation in the fas gene. Also, the MRL/lpr is a useful model to study behavioural and cognitive deficits found in autoimmune diseases and the efficacy of immunosuppressive agents [Monneaux et al., 2003, Eur. J. Immunol. 33,287-296].
Five-week-old female MRL/lpr mice received P140 or peptide P140(MO) intravenously as described (Monneaux et al., 2003, Eur. J. Immunol. 33,287-296). All experimental protocols were carried out with the approval of the local Institutional Animal Care and Use Committee (CREMEAS). As control, mice were injected with NaCl.
Twenty mice were used for each peptide or NaCl.

[3] = target: T1, HSC70 protein (Bos taurus, UniProt P19120); assay: BIAcore binding of peptides to immobilized HSC70; parameters: species or system bovine; settings: for Rmax / KA / Kd / kd: 25° C., 1:1 Langmuir model; for Rmax: global fit; for KA / Kd / kd: same value given at each analyte concentration
T1 construct: purchased Stressgen
T1 sequence (P19120 whole entry): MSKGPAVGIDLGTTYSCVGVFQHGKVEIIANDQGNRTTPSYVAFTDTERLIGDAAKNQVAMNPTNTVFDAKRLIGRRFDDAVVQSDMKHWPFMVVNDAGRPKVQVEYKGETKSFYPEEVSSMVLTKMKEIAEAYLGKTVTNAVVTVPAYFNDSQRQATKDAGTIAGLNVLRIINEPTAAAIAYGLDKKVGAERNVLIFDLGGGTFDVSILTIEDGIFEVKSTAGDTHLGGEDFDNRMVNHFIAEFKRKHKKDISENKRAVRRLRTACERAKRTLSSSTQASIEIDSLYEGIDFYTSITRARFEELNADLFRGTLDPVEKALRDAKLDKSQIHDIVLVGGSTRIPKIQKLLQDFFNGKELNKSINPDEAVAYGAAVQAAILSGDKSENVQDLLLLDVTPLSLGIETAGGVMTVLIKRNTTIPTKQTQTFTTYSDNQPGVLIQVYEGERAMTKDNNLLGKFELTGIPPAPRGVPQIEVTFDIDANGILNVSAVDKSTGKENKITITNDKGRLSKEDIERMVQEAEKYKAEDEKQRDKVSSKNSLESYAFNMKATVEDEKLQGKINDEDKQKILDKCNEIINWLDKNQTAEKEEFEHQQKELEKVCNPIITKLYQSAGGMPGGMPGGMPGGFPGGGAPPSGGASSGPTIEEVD
Experimental: BIAcore 3000 system (Biacore AB) was used to evaluate the binding of P140 peptides to HSC70 protein (Page et al., 2009, and 2011). Sensor chip CMS, surfactant P20, amine coupling kit containing N-hydroxysuccinimide (NHS) and N-ethyl-N′-dimethylaminopropyl carbodiimide (EDC), 2-(2-pyridinyldithio)ethaneamine (PDEA) and ethanolamine were from Biacore AB. Biosensor assays were performed with HBS-EP buffer as running buffer (10 mM HEPES, 150 mM NaCl, 3 mM EDTA, 0.005% surfactant P20, pH 7.4). The compounds were diluted in the running buffer. The sensor chip surface was regenerated after each experiment by injecting 10 μL of 10 mM HCl. Recombinant bovine HSC70 (Stressgen) was immobilized on flow cells of a CMS sensor chip through its thiol groups using 35 μL PDEA in 50 mM borate buffer, pH 8.3 on the NHS/EDC-activated matrix. Then, 35 μL of HSC70 (100 μg/mL in formate buffer, pH 4.3) were injected until a response of 13,000 response units (RU) corresponding to 13 ng/mm^2 of HSC70 was immobilized. Twenty μL of a 50 mM cysteine/1 M NaCl solution was used to saturate unoccupied sites on the chip. The direct binding measurement of P140 peptides to HSC70 was carried out at 25° C. with a constant flow rate of 20 μL/min. P140 peptide and analogues were injected in the flux at different concentrations for 3 min, followed by a dissociation phase of 3 min. The kinetic parameters were calculated using the BIAeval 3.1 software on a personal computer. Analysis was performed using the simple 1:1 Langmuir binding model. The specific binding profiles were obtained after subtracting the response signal from the control empty channel and from blank-buffer injection. The fitting to each model was judged by the χ^2 value and randomness of residue distribution compared to the theoretical model.

[4] = system: MRL/lpr mice; assay: Proteinuria analysis in MRL/lpr mice (Albustix); assay type: in vivo, mouse; settings: fresh urine, Albustix score over time (FIG. 3)
Experimental: as §1
Proteinuria of the above mice was measured in fresh urine using Albustix (Bayer Diagnostics) and was semi-quantitatively estimated according to a […] recommended by the manufacturer (no proteinuria=0; traces=1; 1+=2; 2+=3; 3+=4; 4+=5).

[5] = system: MRL/lpr mice; assay: Cellularity analysis (peripheral blood leucocytes) in MRL/lpr mice; assay type: in vivo, mouse; settings: 100 μg/100 μL single injection, peripheral blood 5 days after, efficacy at least similar to P140
Experimental: MRL/lpr mice were injected with 100 μg/100 μL of P140 or P140(MO) and cellularity (peripheral blood) was studied 5 days after this unique injection. The count includes all the leucocytes. In view of the low number of tested mice, a non parametric statistical test has been realised Mann-Whitney).

| Compound | 95% of stability (predicted) ([1]; 50 μg/mL, 37° C.) | Linear equation of stability (%) versus days: slope ([1]; 50 μg/mL, 37° C.) | Stability (%) ([1]; 50 μg/mL, day 0, 37° C.) | Stability (%) ([1]; 50 μg/mL, day 20, 37° C.) | Stability (%) ([1]; 50 μg/mL, day 40, 37° C.) | Stability (%) ([1]; 50 μg/mL, day 100, 37° C.) | Linear equation of stability (%) versus days: slope ([1]; 100 μg/mL, 37° C.) | Stability (%) ([1]; 100 μg/mL, day 0, 37° C.) | Stability (%) ([1]; 100 μg/mL, day 20, 37° C.) | Stability (%) ([1]; 100 μg/mL, day 40, 37° C.) | Stability (%) ([1]; 100 μg/mL, day 100, 37° C.) | 95% of stability (predicted) ([1]; 200 μg/mL, 37° C.) | Stability (%) ([1]; 200 μg/mL, day 0, 37° C.) | Stability (%) ([1]; 200 μg/mL, day 20, 37° C.) | Stability (%) ([1]; 200 μg/mL, day 40, 37° C.) | Stability (%) ([1]; 200 μg/mL, day 100, 37° C.) | Median survival [2] | Rmax ([3]; BIAcore) | KA ([3]; BIAcore) | Kd ([3]; BIAcore) | further results |
| --- | --- | --- | --- | --- | --- | --- | --- | --- | --- | --- | --- | --- | --- | --- | --- | --- | --- | --- | --- | --- | --- |
| CC[C@H](C)[C@H](NC(=O)[C@H](Cc1ccccc1)NC(=O)[C@H](C)NC(=O)[C@H](Cc1ccc(O)cc1)NC(=O)CNC(=O)[C@H](CCCNC(=N)N)NC(=O)[C@@H]1CCCN1C(=O)[C@H](CCCCN)NC(=O)CNC(=O)[C@H](COP(=O)(O)O)NC(=O)[C@H](CCCNC(=N)N)NC(=O)[C@H](CCCCN)NC(=O)[C@H](CO)NC(=O)[C@H](Cc1ccc(O)cc1)NC(=O)[C@@H](NC(=O)[C@H](CCSC)NC(=O)[C@H](Cc1c[nH]cn1)NC(=O)[C@@H](NC(=O)[C@@H](N)CCCNC(=N)N)[C@@H](C)CC)C(C)C)C(=O)N[C@@H](CCC(=O)O)C(=O)N[C@@H](Cc1ccc(O)cc1)C(=O)O [Compound P140] (H-RIHMVYSKR[pS]GKPRGYAFIEY-OH) | 1 months | y = −0.099x + | 100% | 95.5% | 93.2% | 89.6% | y = −0.0612x + | 100% | 97.5% | 96.2% | 93.4% | 6 months | 100% | 98.7% | 98.5% | 97.4% | 29 weeks | 83.3 RU | 144000 M⁻¹ | 6.94 µM | Stability (%) ([1]; 50 μg/mL, day 60, 37° C.): 91.5%; Stability (%) ([1]; 50 μg/mL, day 80, 37° C.): 90.3%; 95% of stability (predicted) ([1]; 100 μg/mL, 37° C.): 2 months; Stability (%) ([1]; 100 μg/mL, day 60, 37° C.): 95.5%; Stability (%) ([1]; 100 μg/mL, day 80, 37° C.): 94.5%; Linear equation of stability (%) versus days: slope ([1]; 200 μg/mL, 37° C.): y = −0.0238x +; Stability (%) ([1]; 200 μg/mL, day 60, 37° C.): 97.9%; Stability (%) ([1]; 200 μg/mL, day 80, 37° C.): 97.6%; kd ([3]; BIAcore): 0.00312 s⁻¹; Req ([3]; peptide 1.56 μM): 15.3 RU; kobs ([3]; peptide 1.56 μM): 0.00382 s⁻¹; Req ([3]; peptide 3.12 μM): 25.8 RU; kobs ([3]; peptide 3.12 μM): 0.00452 s⁻¹; Req ([3]; peptide 6.25 μM): 39.5 RU; kobs ([3]; peptide 6.25 μM): 0.00593 s⁻¹; Req ([3]; peptide 12.5 μM): 53.6 RU; kobs ([3]; peptide 12.5 μM): 0.00874 s⁻¹; Req ([3]; peptide 25 μM): 65.2 RU; kobs ([3]; peptide 25 μM): 0.0144 s⁻¹ |
| CC[C@H](C)[C@H](NC(=O)[C@H](Cc1ccccc1)NC(=O)[C@H](C)NC(=O)[C@H](Cc1ccc(O)cc1)NC(=O)CNC(=O)[C@H](CCCNC(=N)N)NC(=O)[C@@H]1CCCN1C(=O)[C@H](CCCCN)NC(=O)CNC(=O)[C@H](COP(=O)(O)O)NC(=O)[C@H](CCCNC(=N)N)NC(=O)[C@H](CCCCN)NC(=O)[C@H](CO)NC(=O)[C@H](Cc1ccc(O)cc1)NC(=O)[C@@H](NC(=O)[C@H](CC[S+](C)[O-])NC(=O)[C@H](Cc1c[nH]cn1)NC(=O)[C@@H](NC(=O)[C@@H](N)CCCNC(=N)N)[C@@H](C)CC)C(C)C)C(=O)N[C@@H](CCC(=O)O)C(=O)N[C@@H](Cc1ccc(O)cc1)C(=O)O (some centres unmarked) [P140(MO), RIHM(O)VYSKRS(PO3H2)GKPRGYAFIEY] (H-RIH[Met(O)]VYSKR[pS]GKPRGYAFIEY-OH) | 2 years | y = −0.0064x + | 100% | 100% | 100% | 99.4% | y = −0.0064x + | 100% | 99.1% | 99.5% | 99.1% | ∞ | 100% | 100% | 100% | 100% | > 40 weeks | 39 RU | 524000 M⁻¹ | 1.91 µM | Stability over 100 days (in words) ([1]; all tested concentrations (50 to 200 μg/ml), 37° C.): stable; Proteinuria compared to untreated mice [4]: less important and appears lately; Peripheral hypercellularity [5]: able to decrease peripheral hypercellularity; Affinity for HSC70 compared with P140 (non-oxidized counterpart) ([3]; BIAcore): not statistically different; kd ([3]; BIAcore): 0.0022 s⁻¹; Req ([3]; peptide 1.56 μM): 17.6 RU; kobs ([3]; peptide 1.56 μM): 0.004 s⁻¹; Req ([3]; peptide 3.12 μM): 24.2 RU; kobs ([3]; peptide 3.12 μM): 0.0058 s⁻¹; Req ([3]; peptide 6.25 μM): 29.9 RU; kobs ([3]; peptide 6.25 μM): 0.0094 s⁻¹; Req ([3]; peptide 12.5 μM): 33.9 RU; kobs ([3]; peptide 12.5 μM): 0.0166 s⁻¹; Req ([3]; peptide 25 μM): 36.3 RU; kobs ([3]; peptide 25 μM): 0.031 s⁻¹ |
